Where two headings read alike, the source gives them in different places.
Key:
[1] = system: individuals diagnosed with MDD and insomnia; conditions: cited from earlier work
[2] = system: isolated human nasal chemosensory neurons; experiment: Electrophysiology: inward currents in isolated nasal chemosensory neurons; type: cell-based
[3] = system: nasal septal chemosensory epithelium; experiment: Electrophysiology: electrotonic depolarization of chemosensory epithelium; type: cell-based, human
estrogen receptors = experiment: In vitro agonist/antagonist activity on steroid receptors
androgen receptors = androgen receptors (Homo sapiens, UniProt P10275); experiment: as above
Sequence of androgen receptors (P10275 whole entry): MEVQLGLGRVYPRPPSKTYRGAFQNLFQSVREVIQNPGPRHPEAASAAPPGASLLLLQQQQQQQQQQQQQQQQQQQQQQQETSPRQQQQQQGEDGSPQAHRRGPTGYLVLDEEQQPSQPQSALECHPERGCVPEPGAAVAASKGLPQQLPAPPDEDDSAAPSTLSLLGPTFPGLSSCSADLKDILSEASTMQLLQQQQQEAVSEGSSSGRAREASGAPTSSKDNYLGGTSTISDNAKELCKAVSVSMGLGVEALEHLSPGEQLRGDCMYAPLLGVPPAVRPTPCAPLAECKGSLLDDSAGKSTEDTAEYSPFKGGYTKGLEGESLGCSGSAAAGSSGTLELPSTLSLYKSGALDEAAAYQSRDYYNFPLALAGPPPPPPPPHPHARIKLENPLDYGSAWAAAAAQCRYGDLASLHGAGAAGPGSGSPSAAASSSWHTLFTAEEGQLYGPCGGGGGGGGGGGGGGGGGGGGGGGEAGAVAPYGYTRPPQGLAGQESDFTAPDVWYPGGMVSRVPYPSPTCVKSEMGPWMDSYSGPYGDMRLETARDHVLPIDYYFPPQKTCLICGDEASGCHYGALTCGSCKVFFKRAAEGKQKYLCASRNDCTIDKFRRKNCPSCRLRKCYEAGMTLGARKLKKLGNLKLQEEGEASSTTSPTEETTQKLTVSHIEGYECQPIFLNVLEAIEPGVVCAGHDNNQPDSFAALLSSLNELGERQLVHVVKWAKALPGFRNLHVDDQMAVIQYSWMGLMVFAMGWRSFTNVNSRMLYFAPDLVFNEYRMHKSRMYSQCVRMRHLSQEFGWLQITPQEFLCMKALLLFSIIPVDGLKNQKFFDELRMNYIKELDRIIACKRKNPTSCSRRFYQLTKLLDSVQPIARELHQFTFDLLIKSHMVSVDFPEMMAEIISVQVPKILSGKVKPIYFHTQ

progestin receptors = progestin receptors (Homo sapiens, UniProt P06401); experiment: as above
Sequence of progestin receptors (P06401 whole entry): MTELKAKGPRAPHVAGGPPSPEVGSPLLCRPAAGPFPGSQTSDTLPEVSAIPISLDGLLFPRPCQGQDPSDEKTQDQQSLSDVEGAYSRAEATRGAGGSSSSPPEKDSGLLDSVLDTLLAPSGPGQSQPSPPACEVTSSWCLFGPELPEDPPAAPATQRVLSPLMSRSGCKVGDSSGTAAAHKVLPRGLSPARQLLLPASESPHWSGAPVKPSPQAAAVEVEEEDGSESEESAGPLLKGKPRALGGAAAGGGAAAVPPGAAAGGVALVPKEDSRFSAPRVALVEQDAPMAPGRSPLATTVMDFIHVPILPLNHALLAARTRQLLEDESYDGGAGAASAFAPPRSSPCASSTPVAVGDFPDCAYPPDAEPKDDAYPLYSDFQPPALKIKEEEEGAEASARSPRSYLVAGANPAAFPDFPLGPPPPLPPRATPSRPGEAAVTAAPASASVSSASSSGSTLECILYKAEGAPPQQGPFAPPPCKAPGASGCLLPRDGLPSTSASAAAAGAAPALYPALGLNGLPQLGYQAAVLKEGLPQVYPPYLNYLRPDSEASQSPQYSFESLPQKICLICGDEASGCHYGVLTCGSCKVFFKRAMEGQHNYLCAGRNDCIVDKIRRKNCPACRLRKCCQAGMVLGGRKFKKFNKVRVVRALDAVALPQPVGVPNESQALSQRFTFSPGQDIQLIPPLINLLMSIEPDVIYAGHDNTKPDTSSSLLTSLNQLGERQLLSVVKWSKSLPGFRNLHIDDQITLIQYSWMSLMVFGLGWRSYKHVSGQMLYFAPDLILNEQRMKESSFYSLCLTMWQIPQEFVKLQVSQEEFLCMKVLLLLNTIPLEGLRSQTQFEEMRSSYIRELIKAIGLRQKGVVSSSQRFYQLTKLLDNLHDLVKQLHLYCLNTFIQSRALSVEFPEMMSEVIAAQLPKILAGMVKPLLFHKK

glucocorticoid receptors = glucocorticoid receptors (Homo sapiens, UniProt P04150); experiment: as above
Sequence of glucocorticoid receptors (P04150 whole entry): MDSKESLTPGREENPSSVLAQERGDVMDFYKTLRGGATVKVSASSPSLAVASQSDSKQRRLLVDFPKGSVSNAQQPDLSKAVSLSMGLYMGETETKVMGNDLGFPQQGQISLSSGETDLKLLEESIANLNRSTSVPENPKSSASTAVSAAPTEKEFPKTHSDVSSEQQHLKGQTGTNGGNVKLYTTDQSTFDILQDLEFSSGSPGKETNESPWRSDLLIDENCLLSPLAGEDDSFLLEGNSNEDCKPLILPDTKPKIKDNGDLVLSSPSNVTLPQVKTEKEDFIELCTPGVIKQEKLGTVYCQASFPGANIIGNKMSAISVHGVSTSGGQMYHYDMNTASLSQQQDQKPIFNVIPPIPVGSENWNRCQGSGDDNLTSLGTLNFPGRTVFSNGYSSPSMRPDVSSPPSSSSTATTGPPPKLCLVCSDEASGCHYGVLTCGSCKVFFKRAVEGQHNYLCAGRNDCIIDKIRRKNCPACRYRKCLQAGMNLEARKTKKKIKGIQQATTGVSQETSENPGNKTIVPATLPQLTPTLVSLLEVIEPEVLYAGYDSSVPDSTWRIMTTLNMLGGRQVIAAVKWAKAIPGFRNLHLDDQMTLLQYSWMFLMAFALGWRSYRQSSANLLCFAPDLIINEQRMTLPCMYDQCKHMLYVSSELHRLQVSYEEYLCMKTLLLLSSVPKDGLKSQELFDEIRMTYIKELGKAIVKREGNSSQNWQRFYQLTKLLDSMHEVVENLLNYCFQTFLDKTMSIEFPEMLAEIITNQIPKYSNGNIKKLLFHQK

[4] = system: receptors of indoleamine, monoamines, ion channels, receptors, peptides, opioid, glutamate neurotransmitter, steroid hormones, or glucocorticoid receptors; experiment: In vitro receptor affinity panel; type: binding
[5] = Ames reverse mutation assay
bone marrow = experiment: In vivo bone marrow micronucleus test
pregnant rats = experiment: Reproductive toxicity study; type: in vivo, rat; conditions: intravenous doses up to 2.5 mg/Kg/day during organogenesis
pregnant rabbits = experiment: Reproductive toxicity study; type: in vivo, rabbit; conditions: intravenous doses up to 2.5 mg/Kg/day during organogenesis
[6] = type: in vivo; conditions: rat, repeated intranasal doses at 10 mg/Kg
mice of both sexes = experiment: Intraperitoneal toxicity, 7-day observation; type: in vivo; conditions: intraperitoneal up to 200 mg/Kg
rats of both sexes = type: in vivo; conditions: intravenous 1 mg/Kg
mice = experiment: Intranasal and intravenous toxicity up to 2.5 mg/Kg; type: in vivo, mouse; conditions: intranasal and intravenous up to 2.5 mg/Kg
rats [7] = experiment: as above; type: in vivo, rat; conditions: intranasal and intravenous up to 2.5 mg/Kg
rabbits = experiment: as above; type: in vivo, rabbit; conditions: intranasal and intravenous up to 2.5 mg/Kg
dogs [8] = experiment: as above; type: in vivo, dog; conditions: intranasal and intravenous up to 2.5 mg/Kg
rats [9] = experiment: One-month intranasal toxicity; type: in vivo, rat; conditions: intranasal up to 50 μg/day for one month
dogs [10] = experiment: 28-day intranasal toxicity; type: in vivo, dog; conditions: intranasal up to 300 μg/day for 28 days
[11] = system: healthy volunteers of both sexes; experiment: Pilot trials, nasal administration; type: in vivo, human
healthy individuals = experiment: Phase 1 open-label, flexible dose-escalation trial; type: in vivo, human
Procedure: In a Phase 1 open-label, flexible dose-escalation trial, the pregn-4-en-20-yn-3-one was formulated as an aqueous solution at 8 μg/mL, with 2% propylene glycol and 2% ethanol, and was administered with a Valois intranasal metered spray pump delivering 50 μL, so that the pregn-4-en-20-yn-3-one was administered at 400 ng/spray. The low-dose group received 400, 400, 1600, 1600, 2800, and 2800 ng/day over the six-day period of the trial, while the high-dose group received 4000, 4000, 5200, 5200, 6400, and 6400 ng/day over the six-day period of the trial. The trial enrolled 10 individuals, 7 male and 3 female, between 21 and 38 years old, healthy, free of any Axis I diagnosis according to the DSM-IV-TR, and not taking any central nervous system medications.

[12] = system: individuals meeting the diagnostic criteria for MDD; experiment: Phase 2 three-arm, double-blind, randomized trial in MDD; type: in vivo, human; conditions: for decrease in average HRSD-17 score from baseline (standard deviation): eight weeks of treatment; for Cohen's d relative to placebo, HRSD-17 item 4 / Cohen's d relative to placebo, HRSD-17 score / decrease in HRSD-17 item 4 (initial insomnia) from baseline: eight weeks
Procedure: In a Phase 2 three-arm, double-blind, randomized trial, individuals received either placebo (a nasal solution containing no pregn-4-en-20-yn-3-one), 3200 ng/day of pregn-4-en-20-yn-3-one (“low dose”), or 6400 ng/day of pregn-4-en-20-yn-3-one (“high dose”), formulated and administered as in the Phase 1 trial. The placebo group and the low dose group administered two sprays per nostril twice/day, the high dose group administered two sprays per nostril four times/day. The trial enrolled 30 individuals, male and female between 18 and 60 years old, meeting the diagnostic criteria for MDD and free of any other Axis I diagnosis according to the DSM-IV-TR, non-suicidal, and not taking any central nervous system medications (including natural products such as St. John's wort). The individuals were required to have a minimum score on the Hamilton Rating Scale for Depression (HRSD-17), a 17-item scale designed for completion by a health professional following a structured interview with the individual, of at least 17, meaning that they were at least moderately depressed; and the primary efficacy criterion in the trial was reduction in HRSD-17 score from baseline.
The trial included ten weekly visits. At the first (screening) visit, the individuals were assessed for depression symptoms and randomized into treatment groups. […] At the second (baseline) visit, they were assessed, trained in self-administration of the nasal spray, and began self-administration of their trial medication. There were seven visits at which they were assessed while on treatment with their trial medication; and one follow-up visit one week after the end of medication administration at which they were given final assessments.
[Cohen's d is the mean difference between groups divided by the pooled standard deviation. For behavioral measures, a Cohen's d of 0.2 represents a small treatment effect; 0.5, a medium treatment effect; and 0.8, a large treatment effect.] […] HRSD-17 item 4 measures initial insomnia (difficulty in falling asleep early in the night), and is scored 0, for no difficulty falling asleep; 1, for complaints of occasional difficulty falling asleep, i.e. more than ½ hour; and 2, complaints of nightly difficulty falling asleep.

[13] = escitalopram plus cognitive behavioral therapy for insomnia
[14] = escitalopram plus control quasi-desensitization therapy
[15] = Phase 1, intranasal 400-6400 ng/day over six days

Structure (SMILES): CN(C)CCC[C@@]1(c2ccc(F)cc2)OCc2cc(C#N)ccc21 [escitalopram]
- rate of remission of the depression [1, 13]: 61.5%
- remission of insomnia [1, 13]: 50.0%
- rate of remission of the depression [1, 14]: 33.3%
- remission of insomnia [1, 14]: 7.7%

Structure (SMILES): C#C[C@H]1CC[C@H]2[C@@H]3CCC4=CC(=O)CC[C@]4(C)[C@H]3CC[C@]12C [pregn-4-en-20-yn-3-one, Pregn-4-en-20-yn-3-one]
- inward currents in isolated human nasal chemosensory neurons [2]: induced inward currents
- concentration of maximal response (amplitude) ([2]; amplitude increased depending on concentration): 10^−7 to 10^−5 M
- electrotonic depolarization of the nasal septal chemosensory epithelium [3]: electrotonic depolarization
- agonist or antagonist activity (estrogen receptors): no agonist or antagonist activity
- agonist or antagonist activity (androgen receptors): no agonist or antagonist activity
- agonist or antagonist activity (progestin receptors): no agonist or antagonist activity
- agonist or antagonist activity (glucocorticoid receptors): no agonist or antagonist activity
- affinity for receptors [4]: nor was there any affinity
- mutagenic or clastogenic potential [5]: no evidence of mutagenic or clastogenic potential
- mutagenic or clastogenic potential (bone marrow): no evidence of mutagenic or clastogenic potential
- adverse effects on maternal or litter parameters (pregnant rats): no adverse effects on maternal or litter parameters
- adverse effects on maternal or litter parameters (pregnant rabbits): no adverse effects on maternal or litter parameters
- systemic exposure [6]: very low systemic exposure (below the limit of accurate quantitation)
- macroscopic or microscopic changes in organs (mice of both sexes): no macroscopic or microscopic changes
- mortality or adverse symptoms (mice of both sexes; 7-day period): no mortality or adverse symptoms
- pathological changes (rats of both sexes): no pathological changes
- changes in behavior (rats of both sexes; 8-day period): no changes in behavior
- deaths, adverse clinical signs, physiological changes, clinical laboratory parameters (mice): no deaths or adverse clinical signs, no physiological changes, or changes in clinical laboratory parameters
- deaths, adverse clinical signs, physiological changes, clinical laboratory parameters (rats [7]): no deaths or adverse clinical signs, no physiological changes, or changes in clinical laboratory parameters
- deaths, adverse clinical signs, physiological changes, clinical laboratory parameters (rabbits): no deaths or adverse clinical signs, no physiological changes, or changes in clinical laboratory parameters
- deaths, adverse clinical signs, physiological changes, clinical laboratory parameters (dogs [8]): no deaths or adverse clinical signs, no physiological changes, or changes in clinical laboratory parameters
- deaths, adverse clinical signs, laboratory or pathology parameters (rats [9]): no deaths or adverse clinical signs or effects on laboratory or pathology parameters
- deaths, adverse clinical signs, laboratory or pathology parameters (dogs [10]): no deaths or adverse clinical signs or effects on the laboratory or pathology parameters
- change in heart rate ([11]; intranasal): did not produce statistically significant change
- change in respiratory rate ([11]; intranasal): did not produce statistically significant change
- duration of the QTC intervals of the electrocardiogram ([11]; intranasal): did not change
- effect on alpha and beta frequency bands of electroencephalogram ([11]; intranasal): did not have significant effect
- effect on body temperature ([11]; intranasal): did not have significant effect
- frequency of electrodermal activity events (skin conductance) ([11]; intranasal): did significantly increase
- tolerability ([11]; nasal administration): well tolerated
- differences in clinical laboratory values, neuropsychological functioning, brain activity between doses or visits (healthy individuals; Phase 1): No statistically significant differences
- differences in safety parameters between the three doses of each treatment group (healthy individuals; Phase 1): no statistically significant differences
- most frequent adverse events (healthy individuals; [15]): increased appetite, and dizziness in the high dose group
- serious adverse events (healthy individuals; [15]): no serious adverse events
- serious adverse events ([12]; Phase 2, any of the groups): no serious adverse events reported
- decrease in average HRSD-17 score from baseline (standard deviation) ([12]; high dose 6400 ng/day intranasal): 18.6 (8.7)
- Cohen's d relative to placebo, HRSD-17 item 4 ([12]; high dose 6400 ng/day): 1.60
- Cohen's d relative to placebo, HRSD-17 score ([12]; high dose 6400 ng/day): 0.82
- decrease in HRSD-17 item 4 (initial insomnia) from baseline ([12]; high dose 6400 ng/day): 1.4 (0.25)
- decrease in average HRSD-17 score from baseline (standard deviation) ([12]; low dose 3200 ng/day intranasal): 18.3 (7.7)
- Cohen's d relative to placebo, HRSD-17 item 4 ([12]; low dose 3200 ng/day): 0.39
- Cohen's d relative to placebo, HRSD-17 score ([12]; low dose 3200 ng/day): 0.86
- decrease in HRSD-17 item 4 (initial insomnia) from baseline ([12]; low dose 3200 ng/day): 0.6 (0.3)
- time to effect on a depressive disorder or its symptoms ([12]; nasal administration): ≤ 1 week

Reference: patent US10322138B2, “Treatment of depressive disorders” (Pherin Pharmaceuticals, Inc., priority 2012, dated 2019)
